Key:
[1] = target: T1, RXRβ (Mus musculus, UniProt P28704); assay: holoreceptor transactivation assay, RXRβ; assay type: cell-based; conditions: for EC50: holoreceptor transactivation, RXRβ, read-out: RXR Trans. EC50 β; for Emax: relative to 10^-6 M cyclopropyl penta-2,4-dienoic acid reference (RXRs), read-out: % efficacy (RXRβ transactivation)
T1 construct: expressed in transfected cells
T1 sequence (P28704 1-520): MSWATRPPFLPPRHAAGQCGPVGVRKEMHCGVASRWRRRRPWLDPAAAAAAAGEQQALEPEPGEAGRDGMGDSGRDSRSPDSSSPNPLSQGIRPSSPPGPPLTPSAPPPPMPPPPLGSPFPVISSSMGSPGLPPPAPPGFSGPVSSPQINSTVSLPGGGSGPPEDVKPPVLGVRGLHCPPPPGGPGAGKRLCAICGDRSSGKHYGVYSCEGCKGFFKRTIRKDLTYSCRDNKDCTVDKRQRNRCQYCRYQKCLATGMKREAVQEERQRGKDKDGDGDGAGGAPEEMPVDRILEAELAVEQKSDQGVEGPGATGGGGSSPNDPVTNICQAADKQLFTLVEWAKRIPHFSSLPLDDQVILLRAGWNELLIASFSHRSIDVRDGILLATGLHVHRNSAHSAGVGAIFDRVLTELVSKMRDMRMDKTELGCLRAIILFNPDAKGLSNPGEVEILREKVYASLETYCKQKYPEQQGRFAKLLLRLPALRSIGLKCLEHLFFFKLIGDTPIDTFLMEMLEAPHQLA
From the text: (§1) Other assays described below, measure the ability of the compounds of the present invention to bind to, and/or activate various retinoid receptor subtypes. When in these assays a compound binds to a given receptor subtype and activates the transcription of a reporter gene through that subtype, then the compound is considered an agonist of that receptor subtype. […] In the below described assays the ability of the compounds to bind to RARα, RARβ, RARγ, RXRα, RXRβ and RXRγ receptors, and the ability or inability of the compounds to activate transcription of a reporter gene through these receptor subtypes can be tested. […] However, some of the compounds of the invention may behave as retinoid antagonists or partial antagonists and/or as inverse agonists. Because of the complex distribution of the different retinoid receptors in various organs of the mammalian body partial agonists and partial antagonists and compounds which have the characteristics of both may lend themselves to particularly useful therapeutic applications and may avoid serious side effects of conventional retinoid drugs.
(§2) A holoreceptor transactivation assay and a ligand binding assay which measure the antagonist/agonist like activity of the compounds of the invention, or their ability to bind to the several retinoid receptor subtypes, respectively, are described in published PCT Application No. WO WO93/11755 (particularly on pages 30-33 and 37-41) published on Jun. 24, 1993, the specification of which is also incorporated herein by reference. A detailed experimental procedure for holoreceptor transactivations has been described by Heyman et al. Cell 68, 397-406, (1992); Allegretto et al. J. Biol. Chem. 268, 26625-26633, and Mangelsdorf et al. The Retinoids: Biology, Chemistry and Medicine, pp 319-349, Raven Press Ltd., New York, which are expressly incorporated herein by reference. The results obtained in this assay are expressed in EC50 numbers, as they are also in the chimeric receptor transactivation assay. The results of ligand binding assay are expressed in Kd numbers. (See Cheng et al. Biochemical Pharmacology Vol. 22 pp 3099-3108, expressly incorporated herein by reference.)
(§3) Table 1 discloses the activity of certain exemplary compounds of the invention in the above-described chimeric receptor transactivation assay, holoreceptor transactivation assay and a ligand binding assays. Particularly, the transactivation data pertaining to RAR receptors were obtained in the chimeric assay, and the data pertaining to transactivation of RXR receptors were obtained in the holoreceptor transactivation assay.

[2] = target: RXRβ; assay: ligand binding assay, RXRβ; conditions: read-out: RXR Bind Ki β
From the text: as §1, §2, §3

[3] = target: T2, RXRα (Homo sapiens, UniProt P19793); assay: holoreceptor transactivation assay, RXRα; assay type: cell-based; conditions: for EC50: holoreceptor transactivation, RXRα, read-out: RXR Trans. EC50 α; for Emax: relative to 10^-6 M cyclopropyl penta-2,4-dienoic acid reference (RXRs), read-out: % efficacy (RXRα transactivation)
T2 construct: expressed in transfected cells
T2 sequence (P19793 1-462): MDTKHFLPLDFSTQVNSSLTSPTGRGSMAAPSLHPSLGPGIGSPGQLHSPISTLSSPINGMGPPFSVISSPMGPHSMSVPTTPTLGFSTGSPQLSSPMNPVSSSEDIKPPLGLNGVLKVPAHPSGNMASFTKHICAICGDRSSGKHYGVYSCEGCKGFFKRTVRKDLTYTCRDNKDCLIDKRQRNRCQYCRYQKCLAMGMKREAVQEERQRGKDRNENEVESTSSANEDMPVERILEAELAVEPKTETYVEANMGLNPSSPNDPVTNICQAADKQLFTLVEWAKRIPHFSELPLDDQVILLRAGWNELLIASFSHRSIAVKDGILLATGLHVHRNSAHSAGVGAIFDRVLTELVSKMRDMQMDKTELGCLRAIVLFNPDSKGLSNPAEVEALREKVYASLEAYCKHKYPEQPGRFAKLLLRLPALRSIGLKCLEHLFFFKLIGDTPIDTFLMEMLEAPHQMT
From the text: as §1, §2, §3

[4] = target: T3, RARγ (Homo sapiens, UniProt P13631); assay: ligand binding assay, RARγ; conditions: read-out: RAR Bind. Ki γ
T3 sequence (P13631 1-454): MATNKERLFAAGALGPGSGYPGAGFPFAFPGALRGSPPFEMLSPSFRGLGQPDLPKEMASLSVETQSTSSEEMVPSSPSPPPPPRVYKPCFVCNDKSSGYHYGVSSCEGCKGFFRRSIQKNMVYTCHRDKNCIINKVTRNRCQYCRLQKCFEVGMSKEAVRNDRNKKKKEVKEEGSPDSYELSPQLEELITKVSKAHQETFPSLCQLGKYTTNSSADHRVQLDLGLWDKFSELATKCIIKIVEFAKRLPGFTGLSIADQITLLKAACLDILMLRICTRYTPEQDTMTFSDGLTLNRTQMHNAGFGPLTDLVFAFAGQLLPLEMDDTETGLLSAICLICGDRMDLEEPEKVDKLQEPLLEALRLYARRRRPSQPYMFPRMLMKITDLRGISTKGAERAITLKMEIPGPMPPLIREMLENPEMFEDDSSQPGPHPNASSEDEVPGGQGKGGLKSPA
From the text: as §1, §2, §3

Row | SMILES | EC50 [1] [nM] | Emax [1] [%] | Ki [2] [nM] | EC50 [3] [nM] | Emax [3] [%] | Ki [4] [nM]
1 | CCN(c1ccc(C(=O)O)cc1)c1cc(C)c2c(c1)C(C)(C)CO2 [Compound 27, 4-[Ethyl-(3,3,7-trimethyl-2,3-dihydro-benzofuran-5-yl)-amino]-benzoic acid] | > 1000 |  | > 100000 | 1000 | 80 | > 30000
2 | CCN(c1ccc(C(=O)O)cc1)c1cc(C(C)(C)C)c2c(c1)C(C)(C)CO2 [Compound 32, 4-[Ethyl-(7-t-butyl-3,3-dimethyl-2,3-dihydro-benzofuran-5-yl)-amino]-benzoic acid] | 1000 | 50 | 342 | 98 | 103 | 2000
3 | CC(C)c1cc(N(C)c2ccc(C(=O)O)cc2)cc2c1OCC2(C)C [Compound 30, 4-[Methyl-(3,3-dimethyl-7-isopropyl-2,3-dihydro-benzofuran-5-yl)-amino]-benzoic acid] | > 1000 | 10 | 4600 | 1000 | 75 | 3300
4 | CCc1cc(N(CC)c2ccc(C(=O)O)cc2)cc2c1OCC2(C)C [Compound 29, 4-[Ethyl-(3,3-dimethyl-7-ethyl-2,3-dihydro-benzofuran-5-yl)-amino]-benzoic acid] | 800 | 70 | > 1000 | 139 | 117 | 8400
5 | CCc1cc(N(c2ccc(C(=O)O)cc2)C(C)C)cc2c1OCC2(C)C [Compound 42, 4-[Isopropyl-(3,3-dimethyl-7-ethyl-2,3-dihydro-benzofuran-5-yl)-amino]-benzoic acid] | > 1000 | 30 | > 1000 | 203 | 100 | 4900
6 | CC(C)c1cc(N(c2ccc(C(=O)O)cc2)C(C)C)cc2c1OCC2(C)C [Compound 43] | 58 | 58 |  | 16 | 66 | 2600
7 | CCN(c1ccc(C(=O)O)cc1)c1cc(C(C)C)c2c(c1)C(C)(C)CO2 [Compound 31, 4-[Ethyl-(3,3-dimethyl-7-isopropyl-2,3-dihydro-benzofuran-5-yl)-amino]-benzoic acid] | 1000 | 75 | 752 | 74 | 116 | 4000

The remaining lines, values ahead:

Row | EC50 [1] [nM] | Emax [1] [%] | Ki [2] [nM] | EC50 [3] [nM] | Emax [3] [%] | Ki [4] [nM] | SMILES
8 | 1000 | 100 | > 1000 | 39 | 107 | > 10000 | CCN(c1ccc(C(=O)O)cc1)c1ccc2c(c1)C(C)(C)OC2(C)C [Compound 83, 4-[Ethyl-(1,1,3,3-tetramethyl-1,3-dihydro-isobenzofuran-5-yl)-amino]-benzoic acid]
9 | 1000 | 184 | 2000 | 40 | 121 | > 10000 | CCCN(c1ccc(C(=O)O)cc1)c1ccc2c(c1)C(C)(C)OC2(C)C [Compound 84, 4-[n-Propyl-(1,1,3,3-tetramethyl-1,3-dihydro-isobenzofuran-5-yl)-amino]-benzoic acid]
10 | 71 | 92 | 178 | 10 | 92 | 2700 | Cc1c(N(c2ccc(C(=O)O)cc2)C(C)C)cc2c(c1C(C)(C)C)OCC2(C)C [Compound 73, 4-[Isopropyl-(7-t-butyl-3,3,6-trimethyl-2,3-dihydro-benzofuran-5-yl)-amino]-benzoic acid]
11 | 1000 | 65 | 2700 | 57 | 115 | > 10000 | CC(C)N(c1ccc(C(=O)O)cc1)c1ccc2c(c1)C(C)(C)OC2(C)C [Compound 87, 4-[i-Propyl-(1,1,3,3-tetramethyl-1,3-dihydro-isobenzofuran-5-yl)-amino]-benzoic acid]
12 | 171 | 33 | 215 | 22 | 73 | 1600 | CC(C)N(c1ccc(C(=O)O)cc1)c1cc(C(C)(C)C)c2c(c1)C(C)(C)CO2 [Compound 44, 4-[Isopropyl-(7-t-butyl-3,3-dimethyl-2,3-dihydro-benzofuran-5-yl)-amino]-benzoic acid]
13 | 1000 | 60 | > 1000 | 161 | 122 | > 10000 | CCCCN(c1ccc(C(=O)O)cc1)c1ccc2c(c1)C(C)(C)OC2(C)C [Compound 85, 4-[n-Butyl-(1,1,3,3-tetramethyl-1,3-dihydro-isobenzofuran-5-yl)-amino]-benzoic acid]

Source: patent publication US6093838A, “Amines substituted with a dihydro-benzofuranyl or with a dihydro-isobenzofuranyl group, an aryl or heteroaryl group and an alkyl group, having retinoid-like biological activity” (Allergan Sales, Inc., priority 1999, dated 2000)
